How the values were obtained:
Hep3B liver cancer cells [1] = assay: Cell proliferation by MTT method, Hep3B; type: cell-based; settings: Hep3B, 10, 25, 50, 100 nM, 24 h, FIG. 9
Description: (§1) 2.2 Detection of Cell Proliferation by MMT Method
(§2) When the liver cancer cells grew to the logarithmic phase, the single cell suspension was inoculated in a 96-well plate at 1×10^4 cells per well. A blank group was a DMEM medium containing 10% fetal bovine serum, a control group was a solvent-added control (DMSO) cell group, and an experimental group was a cell group treated with drugs with different final concentrations (10, 25, 50, 100 nM). After 24 h of treatment, the medium supernatant was carefully aspirated, and 100 μL of MTT solution with a final concentration of […] diluted with the medium was added to each well. After the cells were cultured for 4 h, the medium was discarded, 150 μL of DMSO solution was added to each well, and shaking was performed at a low speed on the shaker for 10 min in the dark. After the crystals were fully dissolved, the absorbance (A) of each well was detected at 490 nm with the microplate reader. Cell proliferation inhibition rate=[(control group A450-blank group A450)−(experimental group A450−blank group A450)/(control group A450−blank group A450)]×100%.

PARP = assay: Apoptosis-related proteins by western blot, PARP in BEL-7402 cells; type: cell-based; settings: BEL-7402 cells, 0, 50 and 100 nM, 24 h, FIG. 10 B
Description: (§3) 2.4 Detection of Apoptosis-Related Proteins by Western Blot
(§4) BEL-7402 cells in the logarithmic growth phase were taken and inoculated in a 12-well plate at 5×10^5 cells per well. The cells treated with TPO with final concentrations of 0, 50 and 100 nM were used. After 24 h of treatment, the cells were collected, then lysate was added, and total proteins were extracted after sufficient lysis on ice. After the protein concentration was measured by a BCA method, the Loading buffer was added and boiled at 100° C. for 10 min to fully denature the proteins. The denatured sample was subjected to SDS-PAGE gel electrophoresis and electrically transferred to a PVDF membrane. The transferred PVDF membrane was sealed with a 5% BSA solution in TBST at a room temperature for 1 h, then incubated overnight with the corresponding primary antibody at 4° C., washed with TBST, incubated with the secondary antibody at a room temperature for 2 h, and washed with TBST again.
(§5) Finally, an ECL chemiluminescent solution was added to make the membrane strip emit light, electrophoresis results were obtained by pressing, developing and fixing with photosensitive films, and the change trends of apoptosis-related proteins among different treatment groups were observed.

[2] = tested on: HepG2 subcutaneous implanted tumor (HepG2-Luc); assay: Inhibition experiment on HepG2 subcutaneous implanted tumor in nude mice; type: in vivo
Description: 2.1 Establishment of Animal Models
Establishment of HepG2-Luc cell line stably expressing luciferase: HepG2 cells in the logarithmic growth phase were taken and placed into a 24-well plate at 1×10^5/well, and cultured overnight to make the cells fully adherent. An original medium was replaced with 2 mL of fresh medium containing 6 μg/mL polybrene, about 1×10^5 transfection units of recombinant lentiviral particles stably expressing luciferase were added, and after incubation was performed for 4 h at 37° C., 2 mL of fresh medium was added to dilute the polybrene. The culture was continued, and a virus-containing medium was replaced with a fresh medium. The culture was continued, a medium containing puromycin was replaced for resistance screening, drug-resistant clones were picked and screened for two weeks, and finally, a cell line HepG2-Luc stably expressing luciferase was obtained.
Construction of bear mice by HepG2-Luc cell line: the cryopreserved HepG2-Luc cells were recovered to a 100 cm^2 culture flask, cultured in vitro to the logarithmic growth phase and digested with 0.25% trypsin containing EDTA, the cells were collected and centrifuged at 1000 rpm for 3 min at a room temperature, the supernatant was discarded, the cells were washed with a serum-free DMEM medium, and the cell viability was detected by a trypan blue exclusion assay (only if the proportion of viable cells exceeded 95%, the experimental requirements were met). A small amount of the serum-free DMEM medium was added to resuspend the cells, and the cells were counted. […]
Detection of tumor growth by animal in-vivo imaging system: each nude mouse was intraperitoneally injected with 150 μL of 30 mg/kg […] substrate and observed for 15 min, the nude mouse was anesthetized with diethyl ether in an induction box for 5 min, the anesthetized nude mouse was quickly transferred into an observation box, the head of the nude mouse was aligned and fixed in a conical nasal plug, parameters were set for fluorescence imaging (if there was tumor growth, fluorescence signals with different intensities can be detected at the corresponding positions), after the imaging, the nude mouse was transferred into the induction box again, and an oxygen valve was turned on to revive the nude mouse.
18 random numbers were generated by Excel software, the random numbers were corresponding to the numbers of the nude mice, and the nude mice were equally divided into model groups according to the size of the random numbers, namely a low-dose group (100 μg/kg), a middle-dose group (200 μg/kg) and a high-dose group (400 μg/kg). After random grouping, the nude mice were weighed and the tumor volume was measured. […]

HepG2 liver cancer cells = assay: Cell proliferation by MTT method, HepG2; type: cell-based; settings: HepG2, 10, 25, 50, 100 nM, 24 h, FIG. 9
Description: as §1, §2

[3] = tested on: SMMC-7721 liver cancer cells; assay: Cell proliferation by MTT method, SMMC-7721; type: cell-based; settings: SMMC-7721, 10, 25, 50, 100 nM, 24 h, FIG. 9
Description: as §1, §2

LO2 cells = assay: Cell toxicity experiment (LDH activity of culture supernatant); type: cell-based; settings: normal liver cells, 0, 10, 50 and 100 nM, 24 h; FIG. 8
Description: 2.1 Cell Toxicity Experiment
Logarithmically growing LO2 cells were taken and inoculated in a 96-well plate at 1×10^4 cells per well. The cells treated with drugs with final concentrations of 0, 10, 50 and 100 nM were used respectively, the culture supernatant was collected after 24 h, and the LDH activity of the culture supernatant was detected by the Roche biochemical analyzer.

Huh7 cells = assay: Scratch test; type: cell-based; settings: 50 nM, 24 and 48 h, serum-free medium; P<0.05; FIG. 11
Description: Huh7 cells in the logarithmic growth phase were taken and inoculated in a 24-well plate at 5×10^5 cells per well. After the cells were overgrown, a sterile pipette tip was used for scratching, the cells were washed 3 times with PBS after scratching, the scratched cells were removed, a serum-free medium containing 50 nM TPO was added to continue the culture for 24 and 48 h, and photographing was performed. The scratch photo was analyzed by Image J software, the scratch distance was calculated, and the scratch healing was evaluated.

Hep3B liver cancer cells [4] = assay: Cell apoptosis by flow cytometry, Hep3B; type: cell-based; settings: Hep3B, 0, 50 and 100 nM, 24 h, FIG. 10 A
Description: (§6) 2.3 Detection of Cell Apoptosis by Flow Cytometry
(§7) Liver cancer cells in the logarithmic growth phase were taken and inoculated in a 12-well plate at 5×10^5 cells per well. The cells treated with triptolide acrylate (hereinafter referred to as TPO) and triptolide triol (hereinafter referred to as TP-3-OH) with final concentrations of 0, 50 and 100 nM were used. After 24 h of treatment, the cells were digested and collected with 0.25% EDTA-free pancreatin, washed twice with pre-cooled PBS, and resuspended with 300 μL 1× Binding Buffer. 5 μL FITC Annexin V and 5 μL PI were added to each tube of cell suspension and incubated at a room temperature for 5 min in the dark, and the flow cytometry was used for detection within 1 h.

caspase-8 = assay: Western blot of tumor tissue, caspase-8; type: in vivo, nude mice; settings: FIG. 7
Description: (§8) After the tumor tissue was thawed on ice, 50 mg of tumor tissue was taken into a tissue homogenization tube, and 500 μL of tissue lysate containing protease inhibitors and phosphatase inhibitors was added (usage of Roche brand tablets: 1 tablet/10 mL). After high-speed homogenization, centrifugation was performed at 12,000 rpm/min for 15 min, the supernatant was taken, and the protein concentration of the sample was measured by a BCA method. After the concentration of each sample was adjusted to the same, a protein loading buffer (5× Loading buffer) was added, denaturation was performed at 100° C. for 10 min, and preservation was performed at −80° C.
(§9) An appropriate brand of 10% pre-mixed polyacrylamide gel preparation solution was selected, and then, the gel (including separating gel and stacking gel) used in the experiment was prepared according to the instructions for use, which takes about 2 h. In the process of waiting for gel solidification, an SDS-PAGE gel electrophoresis solution was prepared in advance, the prepared gel was put in an electrophoresis tank, then the electrophoresis solution was added, and 10-30 μL of sample was added to each well of loading slot. After the sample runs through the stacking gel at a low pressure of 80 V, the voltage was adjusted to 100 V to make the sample run through the entire block of gel, so as to complete the SDS-PAGE gel electrophoresis operation. Secondly, a membrane transfer operation was performed (a PVDF membrane was pre-wetted in methanol for 5 min in advance), and membrane transfer conditions were: 300 mA, 120-150 min (corresponding to the time selection of the dividing line with a molecular weight of 100 kDa, wherein the selected membrane transfer time of the separated protein with a molecular weight less than 100 kDa was 120 min, and the selected membrane transfer time of the separated protein with a molecular weight greater than 100 kDa was 150 min). […] An ECL luminescent solution was used as a substrate to expose the target band, and the results were analyzed, recorded and counted.

Caspase-3 [5] = assay: Apoptosis-related proteins by western blot, Caspase-3 in BEL-7402 cells; type: cell-based; settings: BEL-7402 cells, 0, 50 and 100 nM, 24 h, FIG. 10 B
Description: as §3, §4, §5

[6] = tested on: BEL-7402 liver cancer cells; assay: Cell proliferation by MTT method, BEL-7402; type: cell-based; settings: BEL-7402, 10, 25, 50, 100 nM, 24 h, FIG. 9
Description: as §1, §2

[7] = tested on: BEL-7402 liver cancer cells; assay: Cell apoptosis by flow cytometry, BEL-7402; type: cell-based; settings: BEL-7402, 0, 50 and 100 nM, 24 h, FIG. 10 A
Description: as §6, §7

p53 = assay: Western blot of tumor tissue, p53; type: in vivo, nude mice; settings: FIG. 7
Description: as §8, §9

caspase-3 [8] = assay: Western blot of tumor tissue, caspase-3; type: in vivo, nude mice; settings: FIG. 7
Description: as §8, §9

C=CC(=O)O[C@@H]1[C@@]2(C(C)C)O[C@H]2[C@@H]2O[C@]23[C@]12O[C@H]2C[C@H]1C2=C(CC[C@@]13C)C(=O)OC2 [triptolide acrylate]
inhibiting effect on proliferation (Hep3B liver cancer cells [1]): significant inhibiting effect
cleavage of PARP (PARP): significantly increased
tumor volume (subcutaneous implanted tumor seen on skin surface) ([2]; administration group (especially the high-dose group) vs model group, dose-dependent, FIG. 5): significantly less than that of the model group
tumor volume of tumor tissues stripped after sacrifice ([2]; administration group vs model group, FIG. 6): less than that of the model group
fluorescence signals in the tumors of the nude mice ([2]; each dose group (100, 200, 400 μg/kg), intraperitoneal injection once a day for 13 days, compared with the model group, dose-dependent, FIG. 4): significantly weakened
fluorescence signal in the tumors of the nude mice ([2]; high-dose group (400 μg/kg), intraperitoneal injection once a day for 13 days, FIG. 4): weakened more obviously
inhibiting effect on proliferation (HepG2 liver cancer cells): significant inhibiting effect
inhibiting effect on proliferation [3]: significant inhibiting effect
LDH activity of the culture supernatant of LO2 cells (LO2 cells): significantly lower than that of the TPL treatment group
migration of Huh7 cells (scratch healing) (Huh7 cells): significantly inhibit
proportion of Annexin V and PI positive cells (induction of apoptosis) (Hep3B liver cancer cells [4]): significantly increased
protein expression quantity of caspase-8 (caspase-8; high-dose group (400 μg/kg)): reduce
protein expression quantity of caspase-8 (caspase-8; low-dose group (100 μg/kg)): reduce
protein expression quantity of caspase-8 (caspase-8; middle-dose group (200 μg/kg)): significantly increase
cleavage of Caspase-3 (Caspase-3 [5]): significantly increased
inhibiting effect on proliferation [6]: significant inhibiting effect
proportion of Annexin V and PI positive cells (induction of apoptosis) [7]: significantly increased
protein expression quantity of p53 (p53; high-dose group (400 μg/kg)): significantly increase
protein expression quantity of p53 (p53; low-dose group (100 μg/kg)): no significant change
protein expression quantity of p53 (p53; middle-dose group (200 μg/kg)): no significant change
protein expression quantity of caspase-3 (caspase-3 [8]; high-dose group (400 μg/kg)): significantly increase
protein expression quantity of caspase-3 (caspase-3 [8]; low-dose group (100 μg/kg)): reduce
protein expression quantity of caspase-3 (caspase-3 [8]; middle-dose group (200 μg/kg)): significantly increase

triptolide triol [TP-3-OH, reference compound]
inhibiting effect on proliferation (Hep3B liver cancer cells [1]): no obvious inhibiting effect
inhibiting effect on proliferation (HepG2 liver cancer cells): no obvious inhibiting effect
inhibiting effect on proliferation [3]: no obvious inhibiting effect
LDH activity of the culture supernatant of LO2 cells (LO2 cells): significantly lower than that of the TPL treatment group
proportion of Annexin V and PI positive cells (induction of apoptosis) (Hep3B liver cancer cells [4]): not obvious
inhibiting effect on proliferation [6]: no obvious inhibiting effect
proportion of Annexin V and PI positive cells (induction of apoptosis) [7]: not obvious
